Here are results for one compound from US20250325516A1, “SEROTONIN ANALOGUES FOR USE IN TREATING METALLOPTOSIS-ASSOCIATED DISORDERS” (INSTITUT CURIE, priority 2022, published 2025).

Molecules are shown by their SMILES. “Also recorded” adds a separate entry of the source.

In experiment [1] the test system is PDAC cells. Description: Cell apoptosis assay with Annexin V and propidium iodide, RSL3-treated PDAC cells (FIG. 10a). The format is cell-based. To be noted: RSL3 0.1, 0.5, 2, 10 μM, compounds 10 μM, 24 h. How it is done: Pancreatic Ductal Adenocarcinoma (PDAC) cells were grown at 37° C. and 5% CO2 using medium prepared based on previously described (https://doi.org/10.1053/j.gastro.2004.03.058).
PDAC cells were seeded on 6 well plates at the density of 2×10^5 cells/well. RSL3 (0.1, 0.5, 2, 10 µM) was added along with compounds (10 μM) on the following day and after 24 h, the media was recovered and the cells were typsinated. The cells were harvested, pelleted along with the media recovered, washed with PBS, and 100 μl of 1× annexin binding buffer containing annexin V and PI (according to the manufacturer's protocol Dead Cell Apoptosis Kits with Annexin V for Flow Cytometry (Invitrogen)). Finally, PBS buffer containing 10% FBS and 1 mM of EDTA, was added for flow cytometry.

Experiment [2] in a line: Colorimetric assessment of metal complex formation in aqueous solution. The format is binding. On the procedure:
[…] assessment of complex formation: To an aqueous solution of serotonin hydrochloride (3 equiv., C=0.1 M) or A3 formic salt (3 equiv., C=0.1 M) iron (III) chloride (1 equiv.) or copper (II) sulfate (C=0.1 M) was added. A color change characterized the formation of metal complexes.

For experiment [3], the system named is PDAC cells. Description: Click-labelling fluorescence microscopy with LysoTracker and organelle antibodies, PDAC cells (FIG. 9). To be noted: 10 μM, 3 h. The format is cell-based. How it is done: Pancreatic Ductal Adenocarcinoma (PDAC) cells were grown at 37° C. and 5% CO2 using medium prepared based on previously described (https://doi.org/10.1053/j.gastro.2004.03.058). Cells were plated on cover slips 24 h prior to the experiment. The cells were treated with 10 µM of compounds for 3 h and LysoTracker Deep Red (ThermoFisher Scientific L12492, 1:10000) according to the manufacturer's protocol. Subsequently, cells were washed three times with 1×PBS and fixed with 2% paraformaldehyde (w/v) in 1×PBS for 12 min, and then washed three times with 1×PBS. After fixation, cells were permeabilized with 0.1% Triton X-100 (v/v) in 1×PBS for 5 min and washed three times with 1×PBS. Then, cells were blocked in 2% BSA, 0.2% Tween-20 (w/v)/1×PBS (blocking buffer) for 20 min at RT. The click reaction cocktail was prepared from Click-iT EdU Imaging Kits (ThermoFisher Scientific, C10337) according to the manufacturer's protocol. Briefly, 868 μL of 1× Click-iT reaction buffer was mixed with 40 μl CuSO4 solution, 2 μL Alexa Fluor azide and 90 μl reaction buffer additive (sodium ascorbate) to reach a final volume of 1 mL. Cover slips were incubated with 50 μl of the click reaction cocktail in the dark at RT for 30 minutes, then washed three times with 1×PBS. Further, cells were incubated with the relevant antibody in blocking buffer for 1 h at room temperature and washed three times with blocking buffer. Then, cells were incubated with secondary antibodies for 1 h. Finally, cover slips were washed three times with 1×PBS and mounted using VECTASHIELD (Vector Laboratories) containing DAPI and were sealed with nail varnish Express manucure (Maybelline, 16P201). Fluorescence images were acquired using a Deltavision real-time microscope (Applied Precision). 100×/1.4NA objectives were used for 2D and 3D acquisitions that were deconvoluted with SoftWorx (Ratio conservative-10 iterations, Applied Precision) and processed with ImageJ.

Experiment [4] is described as follows: Cyclic voltammetry of FeCl3 after addition of compounds (FIG. 10b). The format is binding. As to conditions: 1 mM FeCl3 in 0.3 M nBu4NBF4 in MeCN, scan rate 2 V/s. How it is done: Cyclic voltammetry experiments were performed with a three-electrode cell under argon. Saturated Calomel Electrode (SCE) was used as reference, a steady Glassy Carbon (GC) electrode of diameter 3 mm was selected as working electrode and a Platinum wire as counter-electrode. All cyclic voltammograms were recorded at RT with a μ-autolab III from Metrohm using Nova software with a scan rate of 2 V/s. MeCN was used as a degassed HPLC grade from Carlo Erba. Water was mQ H2O. Stock solution of FeCl3 (100 mM) and Lip-1, A3, A0 and DFO (20 mM) were prepared with 0.3 M nBu4NBF4 in MeCN. 1 mM FeCl3 in 0.3 M nBu4NBF4 in MeCN (1 mL) was used as working solution for recording and subsequently equivalents of compounds were added, stirred and recorded.

On to `C#CCNCCc1c[nH]c2ccc(O)cc12` [Compound A3], for which, in the experiment with PDAC cells [1], the “protection against RSL3-induced ferroptosis (Annexin/propidium iodide)” value is “protects against RSL3-induced ferroptosis”. Further, the “colour of solution in the presence of FeCl3 and CuSO4, indicative of complex formation” value in experiment [2] (aqueous solution, 3 equiv. compound, C=0.1 M) was “form differently colored solutions”. Further, in experiment [2] (colorimetric complexation studies in solution (FIG. 1) and NMR spectroscopy (FIG. 2)), the “complex formation with Fe(II), Fe(III) and Cu(II)” value is recorded as “form readily complexes”. Further, in the experiment on PDAC cells [3], the localization in lysosomes result is recorded as “found to localize in lysosomes; also recorded: goes to lysosomes”. Moreover, the “colocalization with other cell organelles” value in the experiment with PDAC cells [3] (organelle antibodies) is listed as “not on other cell organelles; also recorded: doesn't colocalize with other cell organelles”. For the same compound, the “binding / chelation of Fe^3+ (cyclic voltammetry)” value in experiment [4] is recorded as “chelates/binds to Fe^3+”.
